Read-outs that look alike come from different tables or passages of the source.
Columns and labels:
Type in all cases: cell-based
[1] = test system: CACO2 colorectal cancer cell line; assay: SRB cytotoxicity assay, CACO2; conditions: Homo sapiens, Caco-2, 72 h incubation, n = 12, read-out: Cytotoxicity (as of %Control) IC50 value CACO2
Experimental: (§1) The cancer cell lines were cultured in DMEM supplemented with 10% FBS (Bio Whittaker, Verviers, Belgium), HEPES Buffer (10 mM), gentamicin (50 µg/mL), L-glutamine (100 μg/mL), streptomycin ([…]), penicillin (100 µg/mL), and 4-(2-hydroxyethyl)-1-piperazineethanesulfonic acid (HEPES) Buffer (Sigma, St. Luis, MO, USA). The Sulforhodamine B used was obtained from Santa Cruz Biotechnology, Inc. in Texas, USA. […] Periodontal ligament fibroblasts (PDL) were utilized to assess specific cytotoxicity. Cancer cell lines that have survived offer several benefits. They provide a consistent and uninterrupted source of cells, so bypassing any ethical concerns related to the use of human tissue. Additionally, they are cost-effective. The cytotoxicity levels were assessed using the Sulforhodamine B (SRB) colorimetric assay, provided by Santa Cruz Biotechnology, Inc. in Texas, USA. The Spectro Scan 80D UV-VIS spectrophotometer, manufactured by Sedico Ltd. in Nicosia, Cyprus, was employed for this cytotoxicity screening. The cells were co-incubated with substances or a reference agent at various doses ranging from 5 to 200 μg/mL. […] The reduction in cell viability was analyzed by plotting Dose-response curves and expressing the data as a percentage of the control optical density. The IC50 values were obtained using regression analysis.

[2] = test system: HCT116 colorectal cancer cell line; assay: SRB cytotoxicity assay, HCT116; conditions: Homo sapiens, HCT-116, 72 h incubation, n = 12, read-out: Cytotoxicity (as of %Control) IC50 value HCT116
Experimental: as §1

[3] = test system: SW620 colorectal cancer cell line; assay: SRB cytotoxicity assay, SW620; conditions: Homo sapiens, SW-620, 72 h incubation, n = 12, read-out: Cytotoxicity (as of %Control) IC50 value SW620
Experimental: as §1

[4] = test system: HT-29 colorectal cancer cell line; assay: SRB cytotoxicity assay, HT29; conditions: Homo sapiens, 72 h incubation, n = 12, read-out: Cytotoxicity (as of %Control) IC50 value HT29
Experimental: as §1

[5] = test system: PANC1 pancreatic cell line; assay: SRB cytotoxicity assay, PANC1; conditions: Homo sapiens, PANC-1, 72 h incubation, n = 12, read-out: Cytotoxicity (as of %Control) IC50 value PANC1
Experimental: as §1

[6] = test system: A549 lung cancer cell line; assay: SRB cytotoxicity assay, A549; conditions: Homo sapiens, 72 h incubation, n = 12, read-out: Cytotoxicity (as of %Control) IC50 value A549 lung malignancy
Experimental: as §1

[7] = test system: Breast cancer cell line MCF7; assay: SRB cytotoxicity assay, MCF7; conditions: Homo sapiens, 72 h incubation, n = 12, read-out: Cytotoxicity (as of %Control) IC50 value MCF7 mammary malignancy
Experimental: as §1

[8] = test system: T47D breast cancer cell line; assay: SRB cytotoxicity assay, T47D; conditions: Homo sapiens, 72 h incubation, n = 12, read-out: Cytotoxicity (as of %Control) IC50 value T47D mammary malignancy
Experimental: as §1

[9] = test system: HeLa uterine cervix adenocarcinoma cell line; assay: SRB cytotoxicity assay, HeLa; conditions: Homo sapiens, 72 h incubation, n = 12, read-out: Cytotoxicity (as of %Control) IC50 value Hela cervix malignancy
Experimental: as §1

[10] = test system: LPS-primed RAW 264.7 murine macrophages (nitrite / iNOS); assay: Anti-inflammatory (nitrite) determination in LPS-primed macrophages; conditions: Mus musculus, read-out: iNOS- IC50 value
Experimental: The RAW 264.7 mouse macrophage cell line (ATCC® TIB-71) was cultivated in high glucose DMEM with 10% foetal bovine serum (FBS), 100 U/mL penicillin, 100 μg/mL streptomycin, and 100 μg/mL L-glutamate. The cells were incubated at 37°C in a humidified environment with 95% air and 5% CO2. Confluent macrophages (2 x 10^5/well) were cultured with lipopolysaccharide (LPS; 20 μg/mL; Sigma, St. Luis, MO, USA) and indomethacin (25–200 μg/mL) as the positive control, along with various concentrations (5–200 μg/mL) of treatment compounds. The cells were incubated for 24 hours. 100 μL of Griess reagent were combined with 100 μL portions of cell culture medium and left to incubate at room temperature for 10 minutes. The absorbance at a wavelength of 550 nm was measured using a microplate reader, namely the Spectro Scan 80D UV-VIS spectrophotometer manufactured by Sedico Ltd. in Nicosia, Cyprus. The nitrite concentration was assessed by comparing it to a standard curve of sodium nitrite. A cytotoxicity protocol using SRB was conducted to assess the impact of the test substances under study on RAW 264.7 viability.

[11] = RAW264.7, LPS-primed RAW 264.7, nitrite by Griess, 24 h, n = 12

`C[C@]12CC[C@@H]3c4ccc(O)c(O)c4CC[C@H]3[C@@H]1CC[C@@H]2O` [4-hydroxy-estradiol] was tested, and the IC50 [1] was 107 ± 4.77 µM, the IC50 [2] was 124 ± 7.8 µM and the IC50 [3] was 142 ± 16.5 µM. For the same molecule, the IC50 [4] was 118 ± 4.17 µM, the IC50 [5] was 66.9 ± 2.69 µM and the IC50 [6] was 15.2 ± 1.34 µM. It also gave an IC50 [7] of 139.8 ± 1.13 µM, an IC50 [8] of 51.5 ± 5.2 µM and an IC50 [9] of 29.8 ± 4.74 µM. It also gave an IC50 [10, 11] of 0.25 ± 0.04 µM.

`O=c1cc(O)cc(/C=C/c2ccc(O)c(O)c2)o1` [Hispidin] gave an IC50 [1] of 74.3 ± 1.13 µM, an IC50 [2] of 198 ± 12.2 µM and an IC50 [3] of 34.3 ± 6.52 µM. The IC50 [4] was 82.75 ± 0.78 µM, the IC50 [5] was 130 ± 2.08 µM and the IC50 [6] was 26 ± 5.22 µM. It also gave an IC50 [7] of 384 ± 7.57 µM, an IC50 [8] of 52.6 ± 0.69 µM and an IC50 [9] of 122 ± 1.34 µM. It also gave an IC50 [10, 11] of 3.47 ± 0.49 µM.

`O=C1c2ccc(O)c(O)c2C(=O)c2c(O)ccc(O)c21` [Quinalizarin] showed an IC50 [1] of 109 ± 9.26 µM, an IC50 [2] of 72.2 ± 5.7 µM and an IC50 [3] of 40.7 ± 2.21 µM. The IC50 [4] was 144 ± 15.6 µM, the IC50 [5] was 127 ± 2.52 µM and the IC50 [6] was 7.9 ± 0.71 µM. For the same molecule, the IC50 [7] was 33.2 ± 0.78 µM, the IC50 [8] was 37.7 ± 4.78 µM and the IC50 [9] was 85.51 ± 0.44 µM. It also gave an IC50 [10, 11] of 1.85 ± 0.34 µM.

Molecule `CC(C)=CC[C@@H](O)C1=CC(=O)c2c(O)ccc(O)c2C1=O` [Shikonin] has an IC50 [1] of 43.8 ± 4.97 µM, an IC50 [2] of 108 ± 2.6 µM and an IC50 [3] of 60.3 ± 2.07 µM. It also gave an IC50 [4] of 142.3 ± 0.76 µM, an IC50 [5] of 80 ± 2.11 µM and an IC50 [6] of 54 ± 5.8 µM. For the same molecule, the IC50 [7] was 37.8 ± 3.89 µM, the IC50 [8] was 30.9 ± 3.66 µM and the IC50 [9] was 13.9 ± 1.91 µM. The IC50 ([10]; RAW264.7, 24 h) was 0.27 ± 0.05 µM.

`Cc1ccc(C(=O)c2cc(O)c(O)c([N+](=O)[O-])c2)cc1` [Tolcapone, reference compound] showed an IC50 [1] of 94.8 ± 6.65 µM, an IC50 [2] of 86.2 ± 6.6 µM and an IC50 [3] of 105 ± 8.35 µM. For the same molecule, the IC50 [4] was 63.3 ± 1.03 µM, the IC50 [5] was 119 ± 9.28 µM and the IC50 [6] was 62 ± 2.21 µM. For the same molecule, the IC50 [7] was 25.6 ± 1.49 µM, the IC50 [8] was 26.9 ± 0.35 µM and the IC50 [9] was 39.35 ± 0.35 µM. It also gave an IC50 [10, 11] of 1.19 ± 0.17 µM.

`CC(/C=C/C(=O)NO)=C\[C@@H](C)C(=O)c1ccc(N(C)C)cc1` [Trichostatin A, reference compound] showed an IC50 [1] of 27.1 ± 1.28 µM, an IC50 [2] of 14 ± 2.5 µM and an IC50 [3] of 19.5 µM. For the same molecule, the IC50 [4] was 27 ± 0.85 µM, the IC50 [5] was 95.8 ± 8.2 µM and the IC50 [6] was 2 ± 0.21 µM. The IC50 [7] was 2.25 ± 0.49 µM, the IC50 [8] was 14.7 ± 0.28 µM and the IC50 [9] was 1.4 ± 0.2 µM. The IC50 [10, 11] was 1.69 ± 0.12 µM.
